# Measured values from ChEMBL document CHEMBL3885881, “DrugMatrix”.
# Organism: Rattus norvegicus
# Test: DrugMatrix - Regimen: Daily Repeat
# Assay type: toxicity, organism-based, Sprague-Dawley
# Parameters: regimen Daily Repeat, gender Male, age 6-8 weeks
# Settings: in vivo, iv, 34 mg/kg, dose level High, vehicle 100 % SALINE; for ABSOLUTE BASOPHIL / ABSOLUTE EOSINOPHIL / ABSOLUTE LYMPHOCYTE / ABSOLUTE MONOCYTE / ABSOLUTE SEGMENTED NEUTROPHIL / BASOPHIL / EOSINOPHIL / ERYTHROCYTE COUNT / HEMATOCRIT / HEMOGLOBIN / LEUKOCYTE COUNT / LYMPHOCYTE / MEAN CORPUSCULAR HEMOGLOBIN / MEAN CORPUSCULAR HEMOGLOBIN CONCENTRATION / MEAN CORPUSCULAR VOLUME / MONOCYTE / NEUTROPHIL / NUCLEATED RED BLOOD CELLS / PLATELET COUNT: tissue Blood; for ALANINE AMINOTRANSFERASE / ALBUMIN / ALKALINE PHOSPHATASE / ASPARTATE AMINOTRANSFERASE / BLOOD UREA NITROGEN / CARBON DIOXIDE / CHLORIDE / CHOLESTEROL / CREATINE PHOSPHOKINASE / CREATININE / GLUCOSE / LACTATE DEHYDROGENASE / LIPASE / PHOSPHORUS / POTASSIUM / SODIUM / TOTAL BILIRUBIN / TOTAL PROTEIN / URIC ACID: tissue Plasma
compound,measurement,setting,value
CN[C@@H]1[C@@H](O)[C@@H](O[C@@H]2[C@@H](O)[C@H](O[C@H]3OC(CN)=CC[C@H]3N)[C@@H](N)C[C@H]2N)OC[C@]1(C)O [SISOMICIN],ABSOLUTE BASOPHIL,"72 h, time 3 day",0 CELLS/uL
same,ABSOLUTE EOSINOPHIL,"72 h, time 3 day",0 CELLS/uL
same,ABSOLUTE LYMPHOCYTE,"72 h, time 3 day",14608 CELLS/uL
same,ABSOLUTE MONOCYTE,"72 h, time 3 day",68 CELLS/uL
same,ABSOLUTE SEGMENTED NEUTROPHIL,"72 h, time 3 day",824 CELLS/uL
same,BASOPHIL,"72 h, time 3 day",0%
same,EOSINOPHIL,"72 h, time 3 day",0%
same,ERYTHROCYTE COUNT,"72 h, time 3 day",5.47 x10E6/uL
same,HEMATOCRIT,"72 h, time 3 day",35.6%
same,HEMOGLOBIN,"72 h, time 3 day",14.07 G/DL
same,LEUKOCYTE COUNT,"72 h, time 3 day",15.5 x10E3/uL
same,LYMPHOCYTE,"72 h, time 3 day",94.67%
same,MEAN CORPUSCULAR HEMOGLOBIN,"72 h, time 3 day",25.73 pg
same,MEAN CORPUSCULAR HEMOGLOBIN CONCENTRATION,"72 h, time 3 day",39.53 G/DL
same,MEAN CORPUSCULAR VOLUME,"72 h, time 3 day",65.13 fL
same,MONOCYTE,"72 h, time 3 day",0.33%
same,NEUTROPHIL,"72 h, time 3 day",5%
same,NUCLEATED RED BLOOD CELLS,"72 h, time 3 day",0 /100WBC
same,PLATELET COUNT,"72 h, time 3 day",1451.67 x10E3/uL
same,ALANINE AMINOTRANSFERASE,"72 h, time 3 day",52.33 u/L
same,ALBUMIN,"72 h, time 3 day",4.2 G/DL
same,ALKALINE PHOSPHATASE,"72 h, time 3 day",295 u/L
same,ASPARTATE AMINOTRANSFERASE,"72 h, time 3 day",81.67 u/L
same,BLOOD UREA NITROGEN,"72 h, time 3 day",17.67 mg/dL
same,CARBON DIOXIDE,"72 h, time 3 day",24 mmol/L
same,CHLORIDE,"72 h, time 3 day",102.33 MEQ/L
same,CHOLESTEROL,"72 h, time 3 day",66.33 mg/dL
same,CREATINE PHOSPHOKINASE,"72 h, time 3 day",204.33 u/L
same,CREATININE,"72 h, time 3 day",0.22 mg/dL
same,GLUCOSE,"72 h, time 3 day",150.67 mg/dL
same,LACTATE DEHYDROGENASE,"72 h, time 3 day",135.33 u/L
same,LIPASE,"72 h, time 3 day",10.33 u/L
same,PHOSPHORUS,"72 h, time 3 day",11.77 mg/dL
same,POTASSIUM,"72 h, time 3 day",6.49 MEQ/L
same,SODIUM,"72 h, time 3 day",144.2 MEQ/L
same,TOTAL BILIRUBIN,"72 h, time 3 day",0.17 mg/dL
same,TOTAL PROTEIN,"72 h, time 3 day",6 G/DL
same,URIC ACID,"72 h, time 3 day",1.27 mg/dL
same,ABSOLUTE BASOPHIL,"120 h, time 5 day",0 CELLS/uL
same,ABSOLUTE EOSINOPHIL,"120 h, time 5 day",136 CELLS/uL
same,ABSOLUTE LYMPHOCYTE,"120 h, time 5 day",16493.67 CELLS/uL
same,ABSOLUTE MONOCYTE,"120 h, time 5 day",81 CELLS/uL
same,ABSOLUTE SEGMENTED NEUTROPHIL,"120 h, time 5 day",1222.67 CELLS/uL
same,BASOPHIL,"120 h, time 5 day",0%
same,EOSINOPHIL,"120 h, time 5 day",1%
same,ERYTHROCYTE COUNT,"120 h, time 5 day",5.67 x10E6/uL
same,HEMATOCRIT,"120 h, time 5 day",37.07%
same,HEMOGLOBIN,"120 h, time 5 day",14.6 G/DL
same,LEUKOCYTE COUNT,"120 h, time 5 day",17.93 x10E3/uL
same,LYMPHOCYTE,"120 h, time 5 day",92%
same,MEAN CORPUSCULAR HEMOGLOBIN,"120 h, time 5 day",25.73 pg
same,MEAN CORPUSCULAR HEMOGLOBIN CONCENTRATION,"120 h, time 5 day",39.43 G/DL
same,MEAN CORPUSCULAR VOLUME,"120 h, time 5 day",65.3 fL
same,MONOCYTE,"120 h, time 5 day",0.33%
same,NEUTROPHIL,"120 h, time 5 day",6.67%
same,NUCLEATED RED BLOOD CELLS,"120 h, time 5 day",0 /100WBC
same,PLATELET COUNT,"120 h, time 5 day",1387.67 x10E3/uL
same,ALANINE AMINOTRANSFERASE,"120 h, time 5 day",44 u/L
same,ALBUMIN,"120 h, time 5 day",4.3 G/DL
same,ALKALINE PHOSPHATASE,"120 h, time 5 day",391.67 u/L
same,ASPARTATE AMINOTRANSFERASE,"120 h, time 5 day",71.67 u/L
same,BLOOD UREA NITROGEN,"120 h, time 5 day",15.67 mg/dL
same,CARBON DIOXIDE,"120 h, time 5 day",22.33 mmol/L
same,CHLORIDE,"120 h, time 5 day",103.67 MEQ/L
same,CHOLESTEROL,"120 h, time 5 day",57.33 mg/dL
same,CREATINE PHOSPHOKINASE,"120 h, time 5 day",158 u/L
same,CREATININE,"120 h, time 5 day",0.22 mg/dL
same,GLUCOSE,"120 h, time 5 day",155 mg/dL
same,LACTATE DEHYDROGENASE,"120 h, time 5 day",130.67 u/L
same,LIPASE,"120 h, time 5 day",10 u/L
same,PHOSPHORUS,"120 h, time 5 day",12.63 mg/dL
same,POTASSIUM,"120 h, time 5 day",6.57 MEQ/L
same,SODIUM,"120 h, time 5 day",145.93 MEQ/L
same,TOTAL BILIRUBIN,"120 h, time 5 day",0.27 mg/dL
same,TOTAL PROTEIN,"120 h, time 5 day",6.17 G/DL
same,URIC ACID,"120 h, time 5 day",1.63 mg/dL
